Test [1] concerns KL tumors (LKB1 mutant lung cancer tumors). Kind of test: KL tumor growth after EP300 inhibitor treatment. As to conditions: FIG. 6C, 6D. Format: in vivo. From the text:
(§1) FIG. 6. EP300 inhibition suppresses LKB1 mutant tumor progression. (A), EP300 inhibitors CCS1477 and A485 suppresses CD38 expression in LKB1 mutant tumors. (B), Representative FACS analysis of CD38 expression after drug treatment. (C), Tumor volume changes of KL tumors after indicated EP300 inhibitors treatment. (D). Tumor growth curve of KL tumors treated with CCS1477 or A485.
(§2) Since LKB1/SIK suppresses CD38 expression through CTRC/EP300/CREB complex, we further tested inhibition of CD38 via EP300 inhibitors, including CCS1477 and A485, in LKB1 mutant lung cancer tumors.

The subject of test [2] is CD38 expression. Kind of test: FACS analysis of CD38 expression in LKB1 mutant tumors after EP300 inhibitor treatment. Format: cell-based. As to conditions: LKB1 mutant lung cancer tumors, FIG. 6A, 6B.
From the text: as §1, §2

Test [3] deals with CD38 expression. Nature of the test: Flow cytometric analysis of CD38 expression after SIK inhibitor treatment in LKB1 WT mouse cancer cell lines. Type of test: cell-based. As to conditions: LKB1 WT mouse lung cancer (KPC), colon cancer (CT26, MC38) and pancreatic cancer (KP1) lines; flow cytometry; FIG. 3. From the text: FIG. 3. SIK inhibitor increases upregulation of CD38 in LKB1 wildtype tumors. Flow cytometric analysis of CD38 expression changes after SIK inhibitor YKL-05-099 treatment in lung cancer (KPC) (A), and colon cancer (CT26, MC38) or pancreatic cancer (KP1) lines (B) at the indicated time points and concentration.
In line with the results of the LKB1 rescue studies, CRISPR-mediated knockout of Lkb1 in murine KP NSCLC cells led to increased cell surface expression of CD38 (FIG. 2A, 2B). We subsequently tested the impact of knockout of Sik1, Sik2 and Sik3, alone or in combination. We observed prominent increases in CD38 expression at the cell surface in KP cells upon inactivation of Sik1 or of all three SIK family members, but not to the level of CD38 in KP sgLkb1 cells (FIG. 2A, 2B). Without intending to be constrained by any particular theory, it is considered this indicates other factors other than SIK1/2/3 downstream of LKB1, might also contribute to the suppression of CD38 expression.

The subject of the next test is HCC44 xenograft tumor. Nature of the test: HCC44 xenograft tumor growth in nu/nu mice. Type of test: in vivo, mouse. As to conditions: LKB1 mutant HCC44 xenograft, 12.5 mg/kg once per week from about 100 mm^3, vs hIgG1, FIG. 5. On the procedure:
(§3) FIG. 5. Daratumumab induces killing of CD38 positive lung cancer. […] A549 (A-C) or HCC44 (D-F) xenograft tumor growth in response to daratumumab treatment. For each mouse, 3×10^6 A549 cells (A) or 5×10^5 HCC44 (D) were implanted into nu/nu mice subcutaneously. Daratumumab or hIgG1 (12.5 mg/kg, once per week) was dosed when tumor size reached 100 mm^3. Growth curve of A549 cells (A) or HCC44 (D) after daratumumab treatment. B-C, Individual mouse tumor growth curve for A549 xenografts treated with either hIgG1 (B) or Daratumumab (C) shown in panel A. (E-F), Individual mouse tumor growth curve for HCC44 xenograft treated with either hIgG1 (E) or Daratumumab (F) shown in panel D.
(§4) To study the effects of daratumumab in vivo, we implanted the LKB1 mutant A549 and HCC44 cell lines into athymic nude (nu/nu) mice to generate tumor xenografts. Daratumumab is a human IgG1, which can be recognized by mouse FcγRs on effector cells, resulting in ADCC induced between daratumumab with mouse NK cells through crosstalk, enabling evaluation of NK cell-mediated tumor cell killing in vivo. When tumors reached approximately 100 mm^3 in volume, mice were treated with daratumumab once weekly.

Another test relates to A549 xenograft tumor. Kind of test: A549 xenograft tumor growth in nu/nu mice. Format: in vivo, mouse. As to conditions: LKB1 mutant A549 xenograft, 12.5 mg/kg once per week from about 100 mm^3, vs hIgG1, FIG. 5. The procedure: as §3, §4

Take `CNC(=O)Nc1ccc2c(c1)CC[C@@]21OC(=O)N(CC(=O)N(Cc2ccc(F)cc2)[C@@H](C)C(F)(F)F)C1=O` [A485]: in test [1], the “tumor growth in vivo” value is given as “reduced tumor growth”. The “CD38 expression on the tumor cells” value in the test on CD38 expression [2] was “decrease of CD38 expression”. Take `CO[C@H]1CC[C@H](n2c([C@@H]3CCCC(=O)N3c3ccc(F)c(F)c3)nc3cc(-c4c(C)noc4C)ccc32)CC1` [CCS1477]: in test [1], the “tumor growth in vivo” value is “reduced tumor growth”. The “CD38 expression on the tumor cells” value with CD38 expression [2] is reported as “decrease of CD38 expression”. As for `COc1ccc(N2C(=O)N(c3c(C)cccc3Cl)Cc3cnc(Nc4ccc(C5CCN(C)CC5)cc4OC)nc32)nc1` [YKL-05-099], the CD38 expression change result in the test on CD38 expression [3] was “upregulated CD38”. Take “daratumumab: first approved antibody against CD38, a fully human IgG1-κ monoclonal antibody”: the tumor growth result with HCC44 xenograft tumor and in the test on A549 xenograft tumor was “significant reduction in tumor growth” throughout.
